The target in the experiment is T1, human clotting factor VIIa (Homo sapiens, UniProt P08709).
T1 construct: a human clotting factor VIIa (hereinafter, “Factor VIIa”) purified sample; purchased Enzyme Research Laboratories HFVIIa
Nature of the experiment: Inhibitory activity against clotting factor VIIa (chromogenic substrate Spectrozyme FVIIa, TF/Factor VIIa enzyme solution). It is filed as biochemical. Particulars: human Factor VIIa 5 nmol/L with human TF 10 nmol/L, room temperature 40 minutes, 405 nm. Summed up: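 Human Factor VIIa (5 nmol/L) with human TF (10 nmol/L) in Tris-BSA buffer pH 7.4 containing 15 mmol/L CaCl2 and cephalin, with Spectrozyme FVIIa substrate. Reaction 40 min at room temperature; 4-nitroanilide read at 405 nm. IC50 by non-linear regression over 100 μmol/L–0.1 nmol/L.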

Structures can show the parent of a compound that is named as a salt.

T1 sequence (P08709 213-466 limits assumed): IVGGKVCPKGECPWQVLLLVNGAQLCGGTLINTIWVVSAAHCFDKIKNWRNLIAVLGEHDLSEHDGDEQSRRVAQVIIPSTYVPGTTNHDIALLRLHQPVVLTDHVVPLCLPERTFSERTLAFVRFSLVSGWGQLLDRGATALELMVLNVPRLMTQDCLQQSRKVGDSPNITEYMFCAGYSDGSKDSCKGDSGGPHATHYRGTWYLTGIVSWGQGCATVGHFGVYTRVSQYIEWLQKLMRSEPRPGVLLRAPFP
T1 sequence (P08709 61-212 limits assumed): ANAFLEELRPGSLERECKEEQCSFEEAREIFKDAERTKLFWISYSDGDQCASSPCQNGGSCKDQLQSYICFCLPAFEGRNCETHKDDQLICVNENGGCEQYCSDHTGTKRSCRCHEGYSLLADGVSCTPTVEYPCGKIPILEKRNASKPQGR
T1 sequence (P13726 33-295 partner): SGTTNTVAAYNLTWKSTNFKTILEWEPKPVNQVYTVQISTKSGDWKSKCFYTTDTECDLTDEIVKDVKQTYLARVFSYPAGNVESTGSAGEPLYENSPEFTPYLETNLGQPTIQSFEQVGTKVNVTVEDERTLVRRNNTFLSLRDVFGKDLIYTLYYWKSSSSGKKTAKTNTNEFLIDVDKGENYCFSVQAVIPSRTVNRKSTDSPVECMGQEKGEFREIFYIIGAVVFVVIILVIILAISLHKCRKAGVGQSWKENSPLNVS

By IC50 is commonly meant the concentration needed to halve the response being measured. A lower IC50 goes with greater potency. Regarding `COc1cc(C(Nc2ccc(C(=N)N)cc2)c2nn(-c3cccnn3)c(=O)[nH]2)cc2c1OCCCO2` (stereo not drawn) [Example 147, 4-{[(9-methoxy-3,4-dihydro-2H-benzo[b][1,4]dioxepin-7-yl)-(5-oxo-1-pyridazin-3-yl-4,5-dihydro-1H-[1,2,4]triazol-3-yl)methyl]amino}benzamidine acetate], the IC50 is 5.1 nM.

With `COc1cc(F)c(C(Nc2ccc(C(=N)N)cc2)c2nn(-c3[nH]ncc3C(=O)O)c(=O)[nH]2)cc1OC` (stereo not drawn) [Example 157, 5-{3-[(4-carbamimidoylphenylamino)-(2-fluoro-4,5-dimethoxyphenyl)methyl]-5-oxo-4,5-dihydro-[1,2,4]triazol-1-yl}-1H-pyrazole-4-carboxylic acid], the IC50 came out at 59.4 nM.

In turn, `CCOC(=O)c1cn[nH]c1-n1nc(C(Nc2ccc(C(=N)N)cc2)c2cc(OC)c(OC)cc2F)[nH]c1=O` (stereo not drawn) [Example 157d, 5-{3-[(4-carbamimidoylphenylamino)-(2-fluoro-4,5-dimethoxyphenyl)methyl]-5-oxo-4,5-dihydro-[1,2,4]triazol-1-yl}-1H-pyrazole-4-carboxylic acid ethyl ester] showed an IC50 of 6.9 nM.

In turn, `CCOC(=O)c1cn[nH]c1-n1nc(C(Nc2ccc(C(=N)N)cc2)c2cc(OC)c3c(c2F)OCCO3)[nH]c1=O` (stereo not drawn) [Example 175, 5-{3-[(4-carbamimidoylphenylamino)-(5-fluoro-8-methoxy-2,3-dihydrobenzo[1,4]dioxin-6-yl)methyl]-5-oxo-4,5-dihydro-[1,2,4]triazol-1-yl}-1H-pyrazole-4-carboxylic acid ethyl ester acetate] gave an IC50 of 6.5 nM.

For the compound `COc1cc(OCCCO)c(F)c(C(Nc2ccc(C(=N)N)cc2)c2nn(-c3[nH]ncc3C(=O)O)c(=O)[nH]2)c1` (stereo not drawn) [Example 177, 5-(3-{(4-carbamimidoylphenylamino)-[2-fluoro-3-(3-hydroxypropoxy)-5-methoxyphenyl]methyl}-5-oxo-4,5-dihydro-[1,2,4]triazol-1-yl)-1H-pyrazole-4-carboxylic acid acetate], the midpoint of inhibition, the IC50, lay at 27.6 nM.

`COc1cc(OCCO)c(F)c(C(Nc2ccc(C(=N)N)cc2)c2nn(-c3ncccn3)c(=O)[nH]2)c1` (stereo not drawn) [Example 181, 4-({[2-fluoro-3-(2-hydroxyethoxy)-5-methoxyphenyl]-(5-oxo-1-pyrimidin-2-yl-4,5-dihydro-1H-[1,2,4]triazol-3-yl)methyl}amino)benzamidine acetate] came in with an IC50 of 9.3 nM.

In turn, `COc1cc(OCCO)c(F)c(C(Nc2ccc(C(=N)N)cc2)c2nn(-c3ncsc3C(=O)O)c(=O)[nH]2)c1` (stereo not drawn) [Example 182, 4-(3-{(4-carbamimidoylphenylamino)-[2-fluoro-3-(2-hydroxyethoxy)-5-methoxyphenyl]methyl}-5-oxo-4,5-dihydro[1,2,4]triazol-1-yl)thiazole-5-carboxylic acid trifluoroacetate] showed an IC50 of 41.7 nM. Against the preceding compound, the IC50 is about 4.5-fold higher.

As for `COc1cc(C(Nc2ccc(C(=N)N)cc2)c2nn(-c3[nH]ncc3C(=O)O)c(=O)[nH]2)c(F)c2c1OCCC2` (stereo not drawn) [Example 189, 5-{3-[(4-Carbamimidoylphenylamino)-(5-fluoro-8-methoxychroman-6-yl)methyl]-5-oxo-4,5-dihydro-[1,2,4]triazol-1-yl}-1H-pyrazole-4-carboxylic acid], the IC50 was 32.2 nM.

`CCOC(=O)c1cn[nH]c1-n1nc(C(Nc2ccc(C(=N)N)cc2)c2cc(OC)c3c(c2F)OCCCO3)[nH]c1=O` (stereo not drawn) [Example 192, 5-{3-[(4-Carbamimidoylphenylamino)-(6-fluoro-9-methoxy-3,4-dihydro-2H-benzo[b][1,4]dioxepin-7-yl)methyl]-5-oxo-4,5-dihydro-[1,2,4]triazol-1-yl}-1H-pyrazole-4-carboxylic acid ethyl ester acetate] displayed an IC50 of 5.4 nM.

Regarding `COc1cc(C(Nc2ccc(C(=N)N)cc2)c2nn(-c3[nH]ncc3C(=O)O)c(=O)[nH]2)c(F)c2c1OCCCO2` (stereo not drawn) [Example 196, 5-{3-[(4-Carbamimidoylphenylamino)-(6-fluoro-9-methoxy-3,4-dihydro-2H-benzo[b][1,4]dioxepin-7-yl)methyl]-5-oxo-4,5-dihydro-[1,2,4]triazol-1-yl}-1H-pyrazole-4-carboxylic acid acetate], inhibition was half-maximal at 17.8 nM (IC50).

For the compound `CCOC(=O)c1cn[nH]c1-n1nc(C(Nc2ccc(C(=N)N)cc2)c2cc(OC)c3c(c2F)OCCO3)[nH]c1=O` (stereo not drawn) [Example 197, 5-{3-[(4-Carbamimidoylphenylamino)-(5-fluoro-8-methoxy-2,3-dihydrobenzo[1,4]dioxin-6-yl)methyl]-5-oxo-4,5-dihydro-[1,2,4]triazol-1-yl}-1H-pyrazole-4-carboxylic acid ethyl ester trifluoroacetate], the IC50 is 7.8 nM.

Take `COc1cc(OCCO)c(F)c(C(Nc2ccc(C(=N)N)cc2)c2nn(-c3ncccc3N)c(=O)[nH]2)c1` (stereo not drawn) [Example 200, 4-({[1-(3-Aminopyridin-2-yl)-5-oxo-4,5-dihydro-1H-[1,2,4]triazol-3-yl]-[2-fluoro-3-(2-hydroxyethoxy)-5-methoxyphenyl]methyl}amino)benzamidine]: the midpoint of inhibition, the IC50, lay at 11.3 nM.

With `COCCOc1cc(OC)cc(C(Nc2ccc(C(=N)N)cc2)c2nn(-c3ncccc3N)c(=O)[nH]2)c1F` (stereo not drawn) [Example 202, 4-({[1-(3-Aminopyridin-2-yl)-5-oxo-4,5-dihydro-1H-[1,2,4]triazol-3-yl]-[2-fluoro-5-methoxy-3-(2-methoxyethoxy)phenyl]methyl}amino)benzamidine acetate], the IC50 was found to be 12 nM.

Take `CCc1cc(OCCCO)c(F)c(C(Nc2ccc(C(=N)N)cc2)c2nn(-c3ncccc3N)c(=O)[nH]2)c1` (stereo not drawn) [Example 204, 4-({[1-(3-Aminopyridin-2-yl)-5-oxo-4,5-dihydro-1H-[1,2,4]triazol-3-yl]-[5-ethyl-2-fluoro-3-(3-hydroxypropoxy)phenyl]methyl}amino)benzamidine acetate]: the IC50 worked out at 2.7 nM.

Consider `COc1cc(OCCO)cc(C(Nc2ccc(C(=N)N)cc2)c2nn(-c3ncccc3N)c(=O)[nH]2)c1` (stereo not drawn) [Example 207, 4-({[1-(3-Aminopyridin-2-yl)-5-oxo-4,5-dihydro-1H-[1,2,4]triazol-3-yl]-[3-(2-hydroxyethoxy)-5-methoxyphenyl]methyl}amino)benzamidine acetate], for which half-maximal inhibition (IC50) was put at 19.9 nM.

In the case of `COc1cc(C(Nc2ccc(C(=N)N)cc2)c2nn(-c3ncccc3N)c(=O)[nH]2)c(F)c2c1OCCC2` (stereo not drawn) [Example 209, 4-{[[1-(3-Aminopyridin-2-yl)-5-oxo-4,5-dihydro-1H-[1,2,4]triazol-3-yl]-(5-fluoro-8-methoxychroman-6-yl)methyl]amino}benzamidine trifluoroacetate], the IC50 was 4 nM.

Take `COc1cc(OC)c(F)c(C(Nc2ccc(C(=N)N)cc2)c2nn(-c3cccc(C(=O)O)n3)c(=O)[nH]2)c1` (stereo not drawn) [Example 210, 6-{3-[(4-Carbamimidoylphenylamino)-(2-fluoro-3,5-dimethoxyphenyl)methyl]-5-oxo-4,5-dihydro-[1,2,4]triazol-1-yl}pyridine-2-carboxylic acid trifluoroacetate]: the IC50 was determined as 39.1 nM.

With `COc1cc(O)c(F)c(C(Nc2ccc(C(=N)N)cc2)c2nn(-c3ncccn3)c(=O)[nH]2)c1` (stereo not drawn) [Example 224, 4-{[(2-Fluoro-3-hydroxy-5-methoxyphenyl)-(5-oxo-1-pyrimidin-2-yl-4,5-dihydro-1H-[1,2,4]triazol-3-yl)methyl]amino}benzamidine acetate], the IC50 worked out at 48.8 nM.

The values above are taken from US7816522B2, “Triazolone derivatives” (Eisai Co., Ltd., priority 2006, dated 2010).
